Reference: patent publication US11572350B1, “Benzothia(di)azepine compounds and their use as bile acid modulators” (Albireo AB, priority 2020, dated 2023)

Tests used:
[1] = biological target: T1, human LBAT (Homo sapiens, UniProt Q14973); assay: LBAT (h/m) assay: 3H-taurocholic acid uptake in human LBAT-overexpressing cells; assay type: cell-based; settings: 0.3 μM 3H-taurocholic acid and 7.5 μM cold taurocholic acid, 20 minutes, read-out: hLBAT IC50
T1 construct: expressed in transfected cells; kept under Geneticin selection
T1 sequence (Q14973 1-349): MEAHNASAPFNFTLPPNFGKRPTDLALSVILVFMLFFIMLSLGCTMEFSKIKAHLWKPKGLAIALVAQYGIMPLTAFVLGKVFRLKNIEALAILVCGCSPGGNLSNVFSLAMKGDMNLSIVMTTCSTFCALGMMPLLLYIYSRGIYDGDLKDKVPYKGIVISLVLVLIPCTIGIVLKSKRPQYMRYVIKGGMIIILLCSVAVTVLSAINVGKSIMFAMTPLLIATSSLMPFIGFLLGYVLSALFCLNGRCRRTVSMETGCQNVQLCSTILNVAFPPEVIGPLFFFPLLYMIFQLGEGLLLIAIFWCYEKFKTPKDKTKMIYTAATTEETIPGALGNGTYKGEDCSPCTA
Method: LBAT (h/m) Assay Protocol
20,000 cells (Human or Mouse LBAT-overexpressing cells) were seeded in 96-wells plate (Corning CLS3809) in 100 μL MEM-alpha medium (Gibco 12571-063) supplemented with 10% FBS (Gibco 10438026) containing Geneticin (Gibco 10131-027) (1 mg/mL) and incubated at 37° C. in 5% CO2 for 24 hours. After incubation, media was decanted from the wells and cells were washed two times with 300 μL of basal MEM-alpha medium (FBS-free). After decanting basal MEM-alpha medium each time, plates were tapped against paper towel to ensure maximum removal of residual media. For human LBAT, incubation mix was prepared by adding test inhibitor dilutions (3-fold serial dilution in DMSO (Sigma D2650), 10 points) in MEM-alpha (without FBS) containing 0.3 μM 3H-taurocholic acid (ARC ART-1368) and 7.5 μM cold taurocholic acid (Sigma T4009) (maintaining 0.2% final DMSO concentration). For mouse LBAT, incubation mix was prepared by adding test inhibitor dilutions (3-fold serial dilution in DMSO, 10 points) in MEM-alpha (without FBS) containing 0.3 μM 3H-taurocholic acid and 25 μM cold taurocholic acid maintaining 0.2% final DMSO concentration). 50 μL of incubation mix containing test inhibitors was then added to the wells (in duplicate) and the plates were incubated for 20 minutes in a CO2 incubator at 37° C. After incubation, the reaction was stopped by keeping the plates on ice water mix for 2-3 minutes and then the incubation mix was aspirated completely from the wells. The wells were washed two times with 250 μL of chilled unlabelled 1 mM taurocholic acid dissolved in HEPES (Gibco 15630080)-buffered (10 mM) HBSS (Gibco 14175079) (pH 7.4). The plates were tapped against a paper towel after every wash to ensure maximum removal of blocking buffer.
100 μL of MicroScint-20 (PerkinElmer 6013621) was added to the wells and kept overnight at room temperature before reading the plates in TopCount NXT™ Microplate Scintillation and Luminescence Counter from PerkinElmer under 3H Test protocol (set at 120 seconds reading time per well, with normal plate orientation).
(§1) Preparation of Test Compound Dilutions
(§2) All test compounds were provided in powder form at room temperature. 10 mM DMSO stocks of the test compounds were prepared, aliquoted and stored at −20° C. From the 10 mM DMSO stock of the compounds, a 3-fold serial dilution in DMSO was prepared to get a total of 10 dilutions of the test compounds. 0.5 μL of this dilution in DMSO was added to 250 μL of FBS-free basal media containing 3H-taurocholic acid and cold taurocholic acid to prepare the incubation mixture.

[2] = tested on: OATP KO mice; assay: Effect of LBAT selective compounds on serum bile acid levels in OATP KO mice; assay type: in vivo; settings: male OATP KO mice; for Effect on serum bile acid levels: oral dosing at the indicated doses, FIGS. 1 to 4, n=4
Text: Effect of LBAT Selective Compounds on Serum Bile Acid Levels in OATP KO Mice
Male OATP KO mice (Oatp1a/1b cluster knockout mice, Taconic, USA) aged 8 to 9 weeks were used in the studies. After completion of quarantine and acclimatization period, animals were randomized based on body weight into experimental groups (n=4 mice in each). On the experimental day, a baseline blood sample was collected followed by oral dosing of vehicle (0.5% CMC, 0.1% Tween 80) or compound of Example 3, 6, 13 or 15 at the indicated doses. Blood samples were then collected at various time points after dose (indicated in each graph). Blood was allowed to clot, and serum was collected by centrifugation at 3000 g, 4° C. for 15 minutes and stored at −80° C. for further analysis. The total bile acid concentration in each serum sample was determined by using the CELL BIOLABS Total Bile Acids kit (STA631) according to manufacturer's instructions. Mean±SEM, n=4.

[3] = Bidirectional permeability assay (Caco-2 cells); assay type: in vitro ADME; settings: human, FaSSIF donor buffer, 120 minutes at 37° C.; for Papp A→B at 120 min, 10 µM: Caco-2, pH 7.4, absorptive direction (A2B); for Papp B→A at 120 min, 10 µM: Caco-2, pH 7.4, secretory direction (B2A)
Text: (§3) Bidirectional Permeability Assay (Caco-2 Cells)
(§4) HepaRG-Based Assay Protocol

[4] = biological target: T2, human IBAT (Homo sapiens, UniProt Q12908); assay: IBAT (h/m) assay: 3H-taurocholic acid uptake in human IBAT-overexpressing cells; assay type: cell-based; settings: 0.25 μM 3H-taurocholic acid and 5 μM cold taurocholic acid, 20 minutes, highest test concentration 10 μM, read-out: hIBAT IC50
T2 construct: expressed in transfected cells; kept under Puromycin selection
T2 sequence (Q12908 1-348): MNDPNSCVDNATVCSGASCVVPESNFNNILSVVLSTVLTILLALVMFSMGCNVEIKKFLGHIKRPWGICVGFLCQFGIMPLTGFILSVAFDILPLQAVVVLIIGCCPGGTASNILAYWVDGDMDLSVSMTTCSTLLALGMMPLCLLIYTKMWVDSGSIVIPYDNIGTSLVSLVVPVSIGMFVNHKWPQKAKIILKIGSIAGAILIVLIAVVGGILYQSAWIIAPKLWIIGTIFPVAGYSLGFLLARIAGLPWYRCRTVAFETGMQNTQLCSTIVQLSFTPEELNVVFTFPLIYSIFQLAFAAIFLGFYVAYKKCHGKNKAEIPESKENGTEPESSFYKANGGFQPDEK
Method: IBAT (h/m) Assay Protocol
10,000 cells (Human or Mouse IBAT-overexpressing cells) were seeded in 96-wells plate (Corning CLS3809) in 200 μL MEM-alpha medium (Gibco 12571-063) supplemented with 10% FBS (Gibco 10438026) containing Puromycin (Gibco A1113803) (10 μg/mL) and incubated at 37° C. in 5% CO2 for 48 hours. After incubation, media was decanted from the wells and cells were washed two times with 300 μL of basal MEM-alpha medium (FBS-free). After decanting basal MEM-alpha medium each time, plates were tapped against paper towel to ensure maximum removal of residual media. Test inhibitor dilutions (highest test concentration being 10 μM, 3-fold serial dilution, 10 points) prepared in DMSO (Sigma D2650) were added in incubation mix (maintaining 0.2% final DMSO concentration) containing 0.25 μM 3H-taurocholic acid (ARC ART-1368) and 5 μM of cold taurocholic acid (Sigma T4009). 50 μL of incubation mix containing test inhibitors was then added to the wells (in duplicate) and the plates were incubated for 20 minutes in a CO2 incubator at 37° C. After incubation, the reaction was stopped by keeping the plates on ice water mix for 2-3 minutes and then the incubation mix was aspirated completely from the wells. The wells were washed two times with 250 μL of chilled unlabelled 1 mM taurocholic acid dissolved in HEPES (Gibco 15630080)-buffered (10 mM) HBSS (Gibco 14175079) (pH 7.4). The plates were tapped against a paper towel after every wash to ensure maximum removal of blocking buffer.
100 μL of MicroScint-20 (PerkinElmer 6013621) was added to the wells and kept overnight at room temperature before reading the plates in TopCount NXT™ Microplate Scintillation and Luminescence Counter from PerkinElmer under 3H Test protocol (set at 120 seconds reading time per well).
as §1, §2

[5] = tested on: Caco-2 cells; assay: Bidirectional permeability assay (Caco-2 cells); assay type: in vitro ADME; settings: absorptive direction (A2B); FaSSIF donor buffer; 120 minutes at 37° C.
Text: as §3, §4

SMILES | IC50 [1] | Effect on serum bile acid levels [2] | Papp A→B at 120 min, 10 µM [3] | Papp B→A at 120 min, 10 µM [3] | IC50 [4] | Serum bile acids level ([2]; 30 mg/kg oral, within one hour after dosing, pre-dose/vehicle 1 to 5 μmol/L) | Permeability (Caco-2) Papp A2B [5]
CCCCC1CN(c2ccc(F)cc2)c2cc(SC)c(O/C=C/C(=O)O)cc2S(=O)(=O)N1 (single isomer, unassigned) [Example 3, (E)-3-((3-butyl-5-(4-fluorophenyl)-7-(methylthio)-1,1-dioxido-2,3,4,5-tetrahydro-1,2,5-benzothiadiazepin-8-yl)oxy)acrylic acid] | 1.6 nM | increased serum bile acid levels | 10.5 ×10⁻⁶ cm/s | 17.1 ×10⁻⁶ cm/s | 2020 nM |  | 
CCCCC1CN(c2ccccc2)c2cc(SCC)c(O/C=C(\F)C(=O)O)cc2S(=O)(=O)C1 (racemic) [Example 13, (Z)-3-((3-butyl-7-(ethylthio)-1,1-dioxido-5-phenyl-2,3,4,5-tetrahydro-1,5-benzothiazepin-8-yl)oxy)-2-fluoroacrylic acid] | 2.8 nM | increased serum bile acids in a dose-dependent manner | 1.8 ×10⁻⁶ cm/s | 6.9 ×10⁻⁶ cm/s | 4890 nM | about 100 μmol/L | 
CCCCC1CN(c2ccccc2)c2cc(SCC)c(O/C=C(\F)C(=O)O)cc2S(=O)(=O)C1 (single isomer, unassigned) [Example 15, (Z)-3-((3-butyl-7-(ethylthio)-1,1-dioxido-5-phenyl-2,3,4,5-tetrahydro-1,5-benzothiazepin-8-yl)oxy)-2-fluoroacrylic acid] | 1.2 nM | increased serum bile acid levels |  | 5.3 ×10⁻⁶ cm/s | > 3330 nM |  | 1.3 ×10⁻⁶ cm/s
